The values that follow come from US8802866B2, “Pyridinylimidazolone derivatives for the inhibition of PI3 kinases” (Merck Patent GmbH, priority 2009, dated 2014).

One assay has as its target DNA-PK protein complex (Homo sapiens, UniProt P78527). In words: Biochemical DNA-PK assay (FlashPlate). The procedure:
The kinase assay is carried out in […] microtitre FlashPlates®, coated with streptavidin. […] The reaction is stopped by addition of 50 μl/well of 200 mM EDTA. After incubation for 30 minutes, the liquids are removed at room temperature. Each well is washed three times with 100 μl of 0.9% NaCl solution. Non-specific reaction (blank) is determined using a proprietary kinase inhibitor (10 μM). The radioactivity is measured by means of a Topcount. […] Todd Eary, J. G. Schiro, H. Huang, L. E. Burgess, E. A. Kesicki, and J. Halbrook.

Assay [1] has as its system PI3K-dependent phosphorylation of PKB at Serin 473 in PC3 cells. In words: Cellular PI3K assay (P-S473-PKB Luminex assay in PC3 cells). The format is cell-based. The following applies: Homo sapiens, PC-3, 0.5 h; PC3 cells, 30 min, serum-free, P-S473-PKB; read-out: IC50 (cell). As for the experimental part:
The cellular assay for determination of the P-S473-PKB level is carried out as a Luminex assay in 96-well format in PC3 cells.
PC3 cells are sown out with 20,000 cells per well in 100 μl medium (45% […]/45% Ham's F12/10% FCS) and incubated on the following day for 30 min with a serial dilution of the test substance (7 concentrations) under serum-free conditions. The cells are subsequently lysed using 90 μl of lysis buffer (20 mM Tris/HCl pH 8.0, 150 mM NaCl, 1% NP40, 10% glycerol, 1% phosphatase inhibitor I, 1% phosphatase inhibitor II, 0.1% protease inhibitor cocktail III, 0.01% benzonase) per well, and the lysates are separated off from insoluble cell constituents by means of centrifugation through a 96-well filter plate (0.65 μm). The lysates are incubated overnight at 4° C. with shaking with Luminex beads to which an anti-total PKB antibody is coupled. The detection is carried out on the following day by addition of a P-S473-PKB antibody and a species-specific PE-labelled secondary antibody. The detection of P-S473-PKB is carried out by measurement in a Luminex100 instrument by determination of 100 events per cavity in a measurement time of 60 sec.

For a further assay, the target named is PI3Kalpha (Homo sapiens, UniProt P42336). In words: Biochemical PI3Kalpha assay (neomycin SPA, lipid phosphorylation). The following applies: human recombinant GST-PI3K. The procedure:
(§1) The efficacy of the compounds according to the invention in the inhibition of PI3K-induced lipid phosphorylation can be investigated in the following binding assay. The assay combines scintillation proximity assay (SPA) technology (Amersham) with the ability of neomycin (a polycationic antibiotic) to bind phospholipids with high affinity and specificity. […] The coating of SPA beads with neomycin allows the detection of phosphorylated lipid substrates after incubation with recombinant PI3K and radioactive ATP in the same well by trapping the radioactive phospholipids by the SPA beads owing to their specific binding to neomycin. […] After incubation at room temperature for 120 minutes with gentle stirring, the reaction was stopped by addition of 200 μl of a solution comprising 250 μg of neomycin-coated PVT-SPA beads, ATP 60 mM and EDTA 6.2 mM in PBS. The assay is incubated at room temperature for a further 60 minutes with gentle stirring in order to enable binding of the phospholipids to the neomycin-SPA beads. After precipitation of the neomycin-coated PVT-SPA beads over 5 minutes at 1500×g, radioactive Ptdlns(3)P is quantified by scintillation counting in a Wallac Micro-Beta™ plate counter.

The target in another assay is PI3Kbeta (Homo sapiens, UniProt P42338). In words: Biochemical PI3Kbeta assay (neomycin SPA, lipid phosphorylation). Conditions: human recombinant GST-PI3K. The procedure: as §1
PI3Kbeta, sequence (P42338 whole entry): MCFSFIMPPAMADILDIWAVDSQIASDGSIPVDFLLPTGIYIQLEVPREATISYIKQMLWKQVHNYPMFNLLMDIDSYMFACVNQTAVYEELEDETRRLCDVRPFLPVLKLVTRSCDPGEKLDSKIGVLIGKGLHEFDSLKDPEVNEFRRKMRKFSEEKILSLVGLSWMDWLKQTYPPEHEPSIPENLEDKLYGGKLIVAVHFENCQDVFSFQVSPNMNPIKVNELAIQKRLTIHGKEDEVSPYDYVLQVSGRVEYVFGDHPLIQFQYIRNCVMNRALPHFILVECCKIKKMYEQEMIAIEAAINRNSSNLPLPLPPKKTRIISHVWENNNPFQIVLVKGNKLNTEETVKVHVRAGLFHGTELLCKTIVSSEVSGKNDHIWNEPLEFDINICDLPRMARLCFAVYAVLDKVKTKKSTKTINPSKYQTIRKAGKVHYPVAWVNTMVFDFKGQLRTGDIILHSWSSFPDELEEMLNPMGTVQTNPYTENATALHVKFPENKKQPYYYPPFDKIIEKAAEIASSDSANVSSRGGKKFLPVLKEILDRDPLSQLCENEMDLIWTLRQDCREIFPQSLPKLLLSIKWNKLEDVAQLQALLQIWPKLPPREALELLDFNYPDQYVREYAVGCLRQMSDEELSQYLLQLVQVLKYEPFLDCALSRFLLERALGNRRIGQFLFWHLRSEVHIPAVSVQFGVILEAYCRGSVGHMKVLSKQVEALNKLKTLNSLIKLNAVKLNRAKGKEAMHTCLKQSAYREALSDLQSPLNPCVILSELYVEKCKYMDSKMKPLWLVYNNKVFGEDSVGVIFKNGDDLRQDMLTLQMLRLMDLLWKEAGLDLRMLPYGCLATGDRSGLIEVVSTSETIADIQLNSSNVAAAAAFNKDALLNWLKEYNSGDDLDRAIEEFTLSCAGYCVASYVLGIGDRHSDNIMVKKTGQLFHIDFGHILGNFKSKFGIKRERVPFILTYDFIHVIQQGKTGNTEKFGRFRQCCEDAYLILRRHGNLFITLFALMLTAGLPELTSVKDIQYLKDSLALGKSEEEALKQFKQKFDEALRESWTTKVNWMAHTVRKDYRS
PI3Kbeta, sequence (P27986 whole entry partner): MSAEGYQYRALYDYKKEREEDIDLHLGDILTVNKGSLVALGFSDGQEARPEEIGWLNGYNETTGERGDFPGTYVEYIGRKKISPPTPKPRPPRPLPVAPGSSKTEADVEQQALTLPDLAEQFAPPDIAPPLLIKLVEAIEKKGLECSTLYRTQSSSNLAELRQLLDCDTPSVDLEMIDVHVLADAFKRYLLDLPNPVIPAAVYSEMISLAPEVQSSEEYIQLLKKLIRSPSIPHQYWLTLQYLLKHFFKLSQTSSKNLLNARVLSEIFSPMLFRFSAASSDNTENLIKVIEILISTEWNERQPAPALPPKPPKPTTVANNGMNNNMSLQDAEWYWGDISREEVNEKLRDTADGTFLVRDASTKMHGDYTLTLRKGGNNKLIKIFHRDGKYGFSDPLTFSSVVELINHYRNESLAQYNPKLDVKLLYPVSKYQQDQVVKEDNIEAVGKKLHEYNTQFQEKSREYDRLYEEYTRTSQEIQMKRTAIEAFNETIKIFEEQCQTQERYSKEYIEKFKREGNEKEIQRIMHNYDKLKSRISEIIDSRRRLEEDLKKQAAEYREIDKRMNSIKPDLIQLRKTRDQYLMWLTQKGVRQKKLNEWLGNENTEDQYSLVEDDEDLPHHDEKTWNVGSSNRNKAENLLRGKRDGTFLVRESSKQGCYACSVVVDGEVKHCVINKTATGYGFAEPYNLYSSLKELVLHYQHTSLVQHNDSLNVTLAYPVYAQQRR

PI3Kalpha, sequence (P42336 whole entry): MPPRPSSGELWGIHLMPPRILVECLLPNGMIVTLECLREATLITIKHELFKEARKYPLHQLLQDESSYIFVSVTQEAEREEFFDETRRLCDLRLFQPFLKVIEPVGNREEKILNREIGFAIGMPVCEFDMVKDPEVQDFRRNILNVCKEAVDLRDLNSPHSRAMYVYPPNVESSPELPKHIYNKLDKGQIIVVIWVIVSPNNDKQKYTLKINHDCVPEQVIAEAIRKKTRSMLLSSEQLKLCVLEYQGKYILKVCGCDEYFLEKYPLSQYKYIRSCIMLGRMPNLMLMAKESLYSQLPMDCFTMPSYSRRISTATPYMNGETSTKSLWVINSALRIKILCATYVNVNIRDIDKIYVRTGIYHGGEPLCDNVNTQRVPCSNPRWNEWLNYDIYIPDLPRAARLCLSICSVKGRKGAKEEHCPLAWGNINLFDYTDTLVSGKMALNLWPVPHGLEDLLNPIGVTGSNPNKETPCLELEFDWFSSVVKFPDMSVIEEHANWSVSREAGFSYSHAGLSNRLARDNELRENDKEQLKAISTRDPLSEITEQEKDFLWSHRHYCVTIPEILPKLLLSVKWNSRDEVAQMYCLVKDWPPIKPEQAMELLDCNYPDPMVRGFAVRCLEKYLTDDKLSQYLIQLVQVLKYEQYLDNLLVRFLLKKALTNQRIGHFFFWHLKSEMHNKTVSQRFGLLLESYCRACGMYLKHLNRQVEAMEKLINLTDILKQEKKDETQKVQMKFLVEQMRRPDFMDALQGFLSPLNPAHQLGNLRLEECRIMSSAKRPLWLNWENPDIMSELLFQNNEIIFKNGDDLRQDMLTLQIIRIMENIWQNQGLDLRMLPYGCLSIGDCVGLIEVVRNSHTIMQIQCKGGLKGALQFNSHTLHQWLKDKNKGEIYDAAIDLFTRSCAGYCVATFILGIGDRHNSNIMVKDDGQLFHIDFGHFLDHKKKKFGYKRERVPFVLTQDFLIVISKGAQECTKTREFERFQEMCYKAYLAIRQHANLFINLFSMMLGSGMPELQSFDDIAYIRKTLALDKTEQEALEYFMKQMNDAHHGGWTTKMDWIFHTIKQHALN
PI3Kalpha, sequence (P27986 whole entry partner): as the sequence (P27986 whole entry partner) above

With `Cn1cc(-c2cncc(-c3cnc4ccccc4c3)c2)n(-c2ccc(C(C)(C)C#N)cc2)c1=O` [Example A2, 2-Methyl-2-{4-[3-methyl-2-oxo-5-(5-quinolin-3-ylpyridin-3-yl)-2,3-dihydroimidazol-1-yl]phenyl}propionitrile], at DNA-PK protein complex, the IC50 – broadly, the concentration that gives 50% inhibition – lay in the range of 100 to 10000 nM.

As to `Cn1cc(-c2cc(-c3cnc4c(ccn4C)c3)ccn2)n(-c2ccc(C(C)(C)C#N)cc2)c1=O` [Example A54, 2-Methyl-2-(4-{3-methyl-5-[4-(1-methyl-1H-pyrrolo[2,3-b]pyridin-5-yl)pyridin-2-yl]-2-oxo-2,3-dihydroimidazol-1-yl}phenyl)propionitrile], the IC50 in assay [1] is 100 to 10000 nM; at PI3Kalpha, 100 to 10000 nM; on DNA-PK protein complex, 0.1 to 100 nM; on PI3Kbeta, 100 to 10000 nM.

`CC(=O)Nc1ncc(-c2ccnc(-c3cn(C)c(=O)n3-c3cccc(C#N)c3)c2)cc1C(F)(F)F` [Example A68, N-{2′-[3-(3-Cyanophenyl)-1-methyl-2-oxo-2,3-dihydro-1H-imidazol-4-yl]-5-trifluoromethyl-[3,4′]bipyridinyl-6-yl}acetamide]: the IC50 in assay [1] is 100 to 10000 nM; at PI3Kalpha, 100 to 10000 nM; at DNA-PK protein complex, 100 to 10000 nM; at PI3Kbeta, above 10000 nM.

With `Cn1cc(-c2cc(-c3cnc(N)c(C#N)n3)ccn2)n(-c2ccc(C(C)(C)C#N)cc2)c1=O` [Example A70, 3-Amino-6-(2-{3-[4-(cyanodimethylmethyl)phenyl]-1-methyl-2-oxo-2,3-dihydro-1H-imidazol-4-yl}pyridin-4-yl)pyrazine-2-carbonitrile], the IC50 (in assay [1]; at PI3Kalpha; against DNA-PK protein complex; on PI3Kbeta) was 100 to 10000 nM each time.

On to `Cn1cc(-c2cc(-c3cnc4[nH]ccc4n3)ccn2)n(-c2ccc(C(C)(C)C#N)cc2)c1=O` [Example A78, 2-Methyl-2-(4-{3-methyl-2-oxo-5-[4-(5H-pyrrolo[2,3-b]pyrazin-2-yl)pyridin-2-yl]-2,3-dihydroimidazol-1-yl}phenyl)propionitrile], for which the IC50 (in assay [1]; on PI3Kalpha; on DNA-PK protein complex; on PI3Kbeta) was 100 to 10000 nM each time.

`Cn1cc(-c2cc(-c3cnc4nccnc4c3)ccn2)n(-c2ccc(C(C)(C)C#N)cc2)c1=O` [Example A81, 2-Methyl-2-{4-[3-methyl-2-oxo-5-(4-pyrido[2,3-b]pyrazin-7-ylpyridin-2-yl)-2,3-dihydroimidazol-1-yl]phenyl}propionitrile]: the IC50 in assay [1] is above 10000 nM; at PI3Kalpha, 100 to 10000 nM; on DNA-PK protein complex, 0.1 to 100 nM; on PI3Kbeta, 100 to 10000 nM.

In the case of `CN1CCN(c2ccc(-n3c(-c4cc(-c5cnc(N)c(C(F)(F)F)c5)ccn4)cn(C)c3=O)cc2C#N)CC1` [Example A82, 5-[5-(6-Amino-5-trifluoromethyl-[3,4′]bipyridinyl-2′-yl)-3-methyl-2-oxo-2,3-dihydroimidazol-1-yl]-2-(4-methylpiperazin-1-yl)benzonitrile], the IC50 in assay [1] is 100 to 10000 nM; at PI3Kalpha, 100 to 10000 nM; against DNA-PK protein complex it was 0.1 to 100 nM; on PI3Kbeta, 100 to 10000 nM.

For `CNCc1ccc(-c2ccnc(-c3cn(C)c(=O)n3-c3ccc(C(C)(C)C#N)cc3)c2)cn1` [Example A95, 2-Methyl-2-{4-[3-methyl-5-(6-methylaminomethyl-[3,4′]bipyridinyl-2′-yl)-2-oxo-2,3-dihydroimidazol-1-yl]phenyl}propionitrile], the IC50 in assay [1] is above 10000 nM; at PI3Kalpha, above 10000 nM; against DNA-PK protein complex, 100 to 10000 nM; at PI3Kbeta it was above 10000 nM.

Turning to `Cn1cc(-c2cc(-c3c[nH]c4ncccc34)ccn2)n(-c2ccc(C(C)(C)C#N)cc2)c1=O` [Example A100, 2-Methyl-2-(4-{3-methyl-2-oxo-5-[4-(1H-pyrrolo[2,3-b]pyridin-3-yl)pyridin-2-yl]-2,3-dihydroimidazol-1-yl}phenyl)propionitrile], the IC50 (in assay [1]; at PI3Kalpha; at DNA-PK protein complex; on PI3Kbeta) was 100 to 10000 nM throughout.

In the case of `CN1CCN(c2ccc(-n3c(-c4cc(-c5ccc6[nH]ccc6c5)ccn4)cn(C)c3=O)cc2C(F)(F)F)CC1` [Example A102, 4-[4-(1H-Indol-5-yl)pyridin-2-yl]-1-methyl-3-[4-(4-methylpiperazin-1-yl)-3-trifluoromethylphenyl]-1,3-dihydroimidazol-2-one], the IC50 (in assay [1]; at PI3Kalpha; at DNA-PK protein complex) was 100 to 10000 nM each time.

In the case of `CN1CCN(c2ccc(-n3c(-c4cc(-c5cnc(N)c(C(F)(F)F)c5)ccn4)cn(C)c3=O)cc2C(F)(F)F)CC1` [Example A103, 4-(6-Amino-5-trifluoromethyl-[3,4′]bipyridinyl-2′-yl)-1-methyl-3-[4-(4-methyl-piperazin-1-yl)-3-trifluoromethylphenyl]-1,3-dihydroimidazol-2-one], the IC50 (in assay [1]; on PI3Kalpha; at DNA-PK protein complex; on PI3Kbeta) was 100 to 10000 nM throughout.

With `Cc1cc2cc(-c3ccnc(-c4cn(C)c(=O)n4-c4cccc(Oc5ccccc5)c4)c3)cnc2[nH]1` [Example A104, 1-Methyl-4-[4-(2-methyl-1H-pyrrolo[2,3-b]pyridin-5-yl)pyridin-2-yl]-3-(3-phenoxy-phenyl)-1,3-dihydroimidazol-2-one], the IC50 is 100 to 10000 nM in assay [1], 100 to 10000 nM at PI3Kalpha and 0.1 to 100 nM against DNA-PK protein complex.

As to `Cn1cc(-c2cc(-c3cnc4[nH]ccc4c3)ccn2)n(-c2ccc(N3CCN(Cc4cccnc4)CC3)c(C(F)(F)F)c2)c1=O` [Example A106, 1-Methyl-3-[4-(4-pyridin-3-ylmethylpiperazin-1-yl)-3-trifluoromethylphenyl]-4-[4-(1H-pyrrolo[2,3-b]pyridin-5-yl)pyridin-2-yl]-1,3-dihydroimidazol-2-one], the results for the IC50 (in assay [1]; against DNA-PK protein complex) were 0.1 to 100 nM and 100 to 10000 nM, respectively.

As for `Cn1cc(-c2cc(-c3cc(F)c(N)c(C(F)(F)F)c3)ccn2)n(-c2ccc(C(C)(C)C#N)cc2)c1=O` [Example A107, 2-(4-{5-[4-(4-Amino-3-fluoro-5-trifluoromethylphenyl)pyridin-2-yl]-3-methyl-2-oxo-2,3-dihydroimidazol-1-yl}phenyl)-2-methylpropionitrile], the IC50 was in the range of 100 to 10000 nM in assay [1] and 0.1 to 100 nM against DNA-PK protein complex.

Regarding `COc1ccc(Cn2c(-c3cc(-c4cnc(NC(C)=O)c(C(F)(F)F)c4)ccn3)cn(C)c2=O)cc1` [Example A111, N-{2′-[3-(4-Methoxybenzyl)-1-methyl-2-oxo-2,3-dihydro-1H-imidazol-4-yl]-5-trifluoromethyl-[3,4′]bipyridinyl-6-yl}acetamide], the IC50 (in assay [1]; at PI3Kalpha; against DNA-PK protein complex; at PI3Kbeta) was above 10000 nM in each case.
